Source: US6274715A, “Tricyclic erythromycin derivatives” (priority 1997, dated 2001)
≈ marks a conversion by molar mass, not a printed value.

What was measured:
Format in all cases: cell-based
[1] = test system: STAPHYLOCOCCUS AUREUS ATCC 6538P; assay: In vitro antibacterial activity, MIC, BHI agar dilution; details: S. aureus ATCC 6538P, 35-37° C., 20 to 24 hours, unit assumed
[2] = test system: STAPHYLOCOCCUS AUREUS A5177; assay: as above; details: S. aureus A5177, unit assumed
[3] = test system: STAPHYLOCOCCUS AUREUS A-5278; assay: as above; details: S. aureus A-5278, unit assumed
[4] = test system: STAPHYLOCOCCUS AUREUS CMX 642A; assay: as above; details: S. aureus CMX 642A, unit assumed
[5] = test system: STAPHYLOCOCCUS AUREUS NCTC10649M; assay: as above; details: S. aureus NCTC10649M, unit assumed
[6] = test system: STAPHYLOCOCCUS AUREUS CMX 553; assay: as above; details: S. aureus CMX 553, unit assumed
[7] = test system: STAPHYLOCOCCUS AUREUS 1775; assay: as above; details: S. aureus 1775, unit assumed
[8] = test system: STAPHYLOCOCCUS EPIDERMIDIS 3519; details: S. epidermidis 3519; BHI agar; unit assumed
EN[…] ATCC 8043 = assay: In vitro antibacterial activity, MIC, BHI agar dilution; details: E. faecium ATCC 8043, unit assumed
Procedure, shortened: (§1)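 Twelve successive aqueous dilutions of compound in Brain Heart Infusion agar were inoculated with 1:100 culture dilutions (1:10 for slow growers such as Micrococcus, Streptococcus) by Steers replicator and incubated at 35-37° C for 20 to 24 hours. MIC was the lowest concentration giving no growth, slight haze or sparse colonies versus drug-free control.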

M[…] ATCC 4698 = assay: as above; details: M. luteus ATCC 4698, unit assumed
Procedure, shortened: as §1

M[…] ATCC 9341 = assay: as above; details: M. luteus ATCC 9341, unit assumed
Procedure, shortened: as §1

STR[…] 508 = assay: as above; details: S. agalactiae CMX 508, unit assumed
Procedure, shortened: as §1

[9] = test system: STREPTOCOCCUS BOVIS A-5169; assay: as above; details: S. bovis A-5169, unit assumed
[10] = test system: STREPTOCOCCUS PYOGENES EES61; assay: as above; details: S. pyogenes EES61, unit assumed
[11] = test system: STREPTOCOCCUS PYOGENES 930; assay: as above; details: S. pyogenes 930, unit assumed
[12] = test system: STREPTOCOCCUS PYOGENES PIU 2548; assay: as above; details: S. pyogenes PIU 2548, unit assumed
ESCHERICHIA COLI JUHL = details: E. coli JUHL; BHI agar; unit assumed
ESCHERICHIA COLI SS = assay: In vitro antibacterial activity, MIC, BHI agar dilution; details: E. coli SS, unit assumed
ESCHERICHIA COLI DC-2 = assay: as above; details: E. coli DC-2, unit assumed
ESCHERICHIA COLI H560 = assay: as above; details: E. coli H560, unit assumed
ESCHERICHIA COLI KNK 437 = details: E. coli KNK 437; BHI agar; unit assumed
[13] = test system: ENTEROBACTER AEROGENES ATCC 13048; assay: In vitro antibacterial activity, MIC, BHI agar dilution; details: E. aerogenes ATCC 13048, unit assumed
[14] = test system: KLEBSIELLA PNEUMONIAE ATCC 8045; assay: as above; details: K. pneumoniae ATCC 8045, unit assumed
[15] = test system: PROVIDENCIA STUARTII CMX 640; details: P. stuartii CMX 640; BHI agar; unit assumed
[16] = test system: PSEUDOMONAS AERUGINOSA BMH10; assay: In vitro antibacterial activity, MIC, BHI agar dilution; details: P. aeruginosa BMH10, unit assumed
[17] = test system: PSEUDOMONAS AERUGINOSA 5007; assay: as above; details: P. aeruginosa 5007, unit assumed
[18] = test system: PSEUDOMONAS AERUGINOSA K799/WT; assay: as above; details: P. aeruginosa K799/WT, unit assumed
[19] = test system: PSEUDOMONAS AERUGINOSA K799/61; assay: as above; details: P. aeruginosa K799/61, unit assumed
PSEUDOMONAS CEPACIA 296I = assay: as above; details: P. cepacia 296I, unit assumed
[20] = test system: ACINETOBACTER CALCOACETICUS CMX 669; assay: as above; details: A. calcoaceticus CMX 669, unit assumed
[21] = test system: PSEUDOMONAS AERUGINOSA DPHD-5263; assay: as above; details: P. aeruginosa DPHD-5263, unit assumed
[22] = test system: PSEUDOMONAS AERUGINOSA DPHD-2862; assay: as above; details: P. aeruginosa DPHD-2862, unit assumed
CANDIDA ALBICANS CCH 442 = assay: as above; details: C. albicans CCH 442, unit assumed
[23] = test system: MYCOBACTERIUM SMEGMATIS ATCC 114; assay: as above; details: M. smegmatis ATCC 114, unit assumed

Question: Which results are given for `CC[C@H]1OC(=O)[C@H](C)C(=O)[C@H](C)[C@@H](O[C@@H]2O[C@H](C)C[C@H](N(C)C)[C@H]2O)[C@](C)(OC)C[C@@H](C)C2=N[C@@H]3CCC[C@@H]3N3C(=O)O[C@@]1(C)[C@H]3[C@H]2C` [Example 17]?
Answer: MIC [1]: 0.78 µg/mL (≈ 1.15 µM); MIC [2]: 0.78 µg/mL (≈ 1.15 µM); MIC [3]: > 100 µg/mL; MIC [4]: 0.78 µg/mL (≈ 1.15 µM); MIC [5]: 0.78 µg/mL (≈ 1.15 µM); MIC [6]: 0.78 µg/mL (≈ 1.15 µM); MIC [7]: > 100 µg/mL; MIC [8]: 0.78 µg/mL (≈ 1.15 µM); MIC (EN[…] ATCC 8043): 0.2 µg/mL (≈ 0.295 µM); MIC (M[…] ATCC 4698): 0.78 µg/mL (≈ 1.15 µM); MIC (M[…] ATCC 9341): 0.1 µg/mL (≈ 0.148 µM); MIC (STR[…] 508): 0.05 µg/mL (≈ 0.0738 µM); MIC [9]: 0.02 µg/mL (≈ 0.0295 µM); MIC [10]: 0.05 µg/mL (≈ 0.0738 µM); MIC [11]: > 100 µg/mL; MIC [12]: 0.39 µg/mL (≈ 0.575 µM); MIC (ESCHERICHIA COLI JUHL): > 100 µg/mL; MIC (ESCHERICHIA COLI SS): 0.78 µg/mL (≈ 1.15 µM); MIC (ESCHERICHIA COLI DC-2): > 100 µg/mL; MIC (ESCHERICHIA COLI H560): 100 µg/mL (≈ 148 µM); MIC (ESCHERICHIA COLI KNK 437): > 100 µg/mL; MIC [13]: > 100 µg/mL; MIC [14]: > 100 µg/mL; MIC [15]: > 100 µg/mL; MIC [16]: > 100 µg/mL; MIC [17]: > 100 µg/mL; MIC [18]: > 100 µg/mL; MIC [19]: 12.5 µg/mL (≈ 18.4 µM); MIC (PSEUDOMONAS CEPACIA 296I): > 100 µg/mL; MIC [20]: 100 µg/mL (≈ 148 µM); MIC [21]: > 100 µg/mL; MIC [22]: > 100 µg/mL; MIC (CANDIDA ALBICANS CCH 442): > 100 µg/mL; MIC [23]: 12.5 µg/mL (≈ 18.4 µM)

Question: For `CC[C@H]1OC(=O)[C@H](C)C(=O)[C@H](C)[C@@H](O[C@@H]2O[C@H](C)C[C@H](N(C)C)[C@H]2O)[C@](C)(OC)C[C@@H](C)C2=N[C@@H]3CN(Cc4ccc(Cl)cc4)C[C@@H]3N3C(=O)O[C@@]1(C)[C@H]3[C@H]2C` [Example 24], which MIC [1] is on record?
Answer: The MIC was 0.78 µg/mL (≈ 0.971 µM).

Question: And the MIC [2]?
Answer: The MIC was 0.78 µg/mL (≈ 0.971 µM).

Question: What about the MIC [3] of the same molecule?
Answer: The MIC was greater than 100 µg/mL.

Question: And the MIC [4]?
Answer: Its MIC is 0.78 µg/mL (≈ 0.971 µM).

Question: What about the MIC [5] of the same molecule?
Answer: The MIC was 0.78 µg/mL (≈ 0.971 µM).

Question: And the MIC [6]?
Answer: The MIC was 0.78 µg/mL (≈ 0.971 µM).

Question: What about the MIC [7] of the same molecule?
Answer: Its MIC is greater than 100 µg/mL.

Question: And the MIC [8]?
Answer: The MIC was 0.78 µg/mL (≈ 0.971 µM).

Question: And the MIC (EN[…] ATCC 8043)?
Answer: The MIC was 0.2 µg/mL (≈ 0.249 µM).

Question: What about the MIC (M[…] ATCC 4698) of the same molecule?
Answer: The MIC was 0.78 µg/mL (≈ 0.971 µM).

Question: And the MIC (M[…] ATCC 9341)?
Answer: Its MIC is 0.2 µg/mL (≈ 0.249 µM).

Question: What about the MIC (STR[…] 508) of the same molecule?
Answer: The MIC was 0.2 µg/mL (≈ 0.249 µM).

Question: And the MIC [9]?
Answer: Its MIC is 0.05 µg/mL (≈ 0.0622 µM).

Question: What about the MIC [10] of the same molecule?
Answer: Its MIC is 0.05 µg/mL (≈ 0.0622 µM).

Question: What about the MIC [11] of the same molecule?
Answer: Its MIC is 100 µg/mL (≈ 124 µM).

Question: And the MIC [12]?
Answer: Its MIC is 0.78 µg/mL (≈ 0.971 µM).

Question: What about the MIC (ESCHERICHIA COLI JUHL) of the same molecule?
Answer: Its MIC is greater than 100 µg/mL.

Question: What about the MIC (ESCHERICHIA COLI SS) of the same molecule?
Answer: The MIC was 6.2 µg/mL (≈ 7.72 µM).

Question: What about the MIC (ESCHERICHIA COLI DC-2) of the same molecule?
Answer: Its MIC is greater than 100 µg/mL.

Question: And the MIC (ESCHERICHIA COLI H560)?
Answer: The MIC was greater than 100 µg/mL.

Question: What about the MIC (ESCHERICHIA COLI KNK 437) of the same molecule?
Answer: Its MIC is greater than 100 µg/mL.

Question: And the MIC [13]?
Answer: Its MIC is greater than 100 µg/mL.

Question: What about the MIC [14] of the same molecule?
Answer: Its MIC is greater than 100 µg/mL.

Question: And the MIC [15]?
Answer: The MIC was greater than 100 µg/mL.

Question: And the MIC [16]?
Answer: Its MIC is greater than 100 µg/mL.

Question: And the MIC [17]?
Answer: The MIC was greater than 100 µg/mL.

Question: What about the MIC [18] of the same molecule?
Answer: Its MIC is greater than 100 µg/mL.

Question: And the MIC [19]?
Answer: The MIC was 6.2 µg/mL (≈ 7.72 µM).

Question: What about the MIC (PSEUDOMONAS CEPACIA 296I) of the same molecule?
Answer: Its MIC is greater than 100 µg/mL.

Question: And the MIC [20]?
Answer: The MIC was greater than 100 µg/mL.

Question: What about the MIC [21] of the same molecule?
Answer: The MIC was greater than 100 µg/mL.

Question: What about the MIC [22] of the same molecule?
Answer: Its MIC is greater than 100 µg/mL.

Question: What about the MIC (CANDIDA ALBICANS CCH 442) of the same molecule?
Answer: Its MIC is greater than 100 µg/mL.

Question: And the MIC [23]?
Answer: Its MIC is 1.56 µg/mL (≈ 1.94 µM).
